Results published in the NIST ThermoML archive (doi:10.1016/j.fluid.2004.09.013).

Settings: for mass density: Fluid (supercritical or subcritical phases), Vibrating tube method; for vapor or sublimation pressure: Liquid

C=CCC [1-butene]
Settings | mass density [kg/m3]
273.24 K, 612 kPa | 619.16
273.24 K, 4987 kPa | 624.98
273.24 K, 9990 kPa | 631.06
273.24 K, 15004 kPa | 636.64
273.24 K, 20005 kPa | 641.81
273.24 K, 24989 kPa | 646.61
273.24 K, 29996 kPa | 651.13
273.24 K, 34991 kPa | 655.38
273.24 K, 39998 kPa | 659.41
278.25 K, 610 kPa | 613.23
278.25 K, 4982 kPa | 619.35
278.25 K, 9991 kPa | 625.73
278.25 K, 14984 kPa | 631.55
278.25 K, 20001 kPa | 636.92
278.25 K, 24985 kPa | 641.91
278.25 K, 30007 kPa | 646.61
278.25 K, 34997 kPa | 650.99
278.25 K, 39995 kPa | 655.14
283.26 K, 610 kPa | 607.22
283.26 K, 4984 kPa | 613.69
283.26 K, 9995 kPa | 620.39
283.26 K, 15000 kPa | 626.47
283.26 K, 19989 kPa | 632.05
283.26 K, 24987 kPa | 637.22
283.26 K, 30013 kPa | 642.08
283.26 K, 35003 kPa | 646.62
283.26 K, 39990 kPa | 650.88
288.27 K, 611 kPa | 601.14
288.27 K, 14998 kPa | 621.36
288.28 K, 4990 kPa | 607.98
288.28 K, 9997 kPa | 615.01
288.28 K, 19990 kPa | 627.16
288.28 K, 24993 kPa | 632.55
288.28 K, 30009 kPa | 637.56
288.28 K, 35002 kPa | 642.25
288.28 K, 39995 kPa | 646.65
293.29 K, 611 kPa | 594.95
293.29 K, 4994 kPa | 602.2
293.29 K, 9995 kPa | 609.58
293.29 K, 14989 kPa | 616.2
293.29 K, 19984 kPa | 622.26
293.29 K, 24990 kPa | 627.84
293.29 K, 29991 kPa | 633.02
293.29 K, 34994 kPa | 637.87
293.29 K, 39994 kPa | 642.42
298.3 K, 613 kPa | 588.66
298.3 K, 4990 kPa | 596.33
298.3 K, 10001 kPa | 604.11
298.3 K, 14994 kPa | 611.04
298.3 K, 19995 kPa | 617.35
298.3 K, 24993 kPa | 623.14
298.3 K, 30005 kPa | 628.51
298.3 K, 35015 kPa | 633.51
298.3 K, 40003 kPa | 638.19
303.31 K, 661 kPa | 582.33
303.31 K, 9983 kPa | 598.56
303.31 K, 15001 kPa | 605.85
303.31 K, 19987 kPa | 612.4
303.31 K, 24994 kPa | 618.42
303.31 K, 30008 kPa | 623.99
303.31 K, 35004 kPa | 629.15
303.32 K, 4995 kPa | 590.39
303.32 K, 40006 kPa | 633.97
308.32 K, 4985 kPa | 584.34
308.32 K, 9991 kPa | 592.99
308.32 K, 14996 kPa | 600.61
308.32 K, 19992 kPa | 607.46
308.32 K, 25004 kPa | 613.71
308.32 K, 30007 kPa | 619.45
308.32 K, 34999 kPa | 624.79
308.32 K, 40000 kPa | 629.76
308.33 K, 713 kPa | 575.87
313.2 K, 947 kPa | 569.83
313.2 K, 4992 kPa | 578.34
313.2 K, 9990 kPa | 587.43
313.2 K, 14997 kPa | 595.4
313.2 K, 19994 kPa | 602.53
313.2 K, 24994 kPa | 609.01
313.2 K, 30011 kPa | 614.95
313.2 K, 35009 kPa | 620.44
313.2 K, 39997 kPa | 625.59
318.21 K, 1037 kPa | 563.26
318.21 K, 5017 kPa | 572.17
318.21 K, 10015 kPa | 581.78
318.21 K, 15007 kPa | 590.11
318.21 K, 20018 kPa | 597.56
318.21 K, 25018 kPa | 604.28
318.21 K, 30002 kPa | 610.4
318.21 K, 35001 kPa | 616.07
318.21 K, 39996 kPa | 621.35
323.21 K, 1110 kPa | 556.48
323.21 K, 9982 kPa | 575.95
323.21 K, 14984 kPa | 584.73
323.21 K, 25001 kPa | 599.51
323.21 K, 30001 kPa | 605.88
323.21 K, 34994 kPa | 611.74
323.21 K, 40004 kPa | 617.19
323.22 K, 5006 kPa | 565.82
323.22 K, 19997 kPa | 592.52
328.22 K, 1187 kPa | 549.53
328.22 K, 4989 kPa | 559.32
328.22 K, 9998 kPa | 570.14
328.22 K, 14996 kPa | 579.36
328.22 K, 19992 kPa | 587.47
328.22 K, 25011 kPa | 594.75
328.22 K, 30003 kPa | 601.33
328.22 K, 34986 kPa | 607.37
328.22 K, 40001 kPa | 613
333.22 K, 1276 kPa | 542.42
333.22 K, 4994 kPa | 552.72
333.22 K, 10001 kPa | 564.22
333.22 K, 14993 kPa | 573.92
333.22 K, 20000 kPa | 582.4
333.22 K, 24986 kPa | 589.92
333.22 K, 29987 kPa | 596.76
333.22 K, 35007 kPa | 603.04
333.22 K, 40005 kPa | 608.82
338.22 K, 1372 kPa | 535.11
338.22 K, 4996 kPa | 545.96
338.22 K, 9985 kPa | 558.18
338.22 K, 14991 kPa | 568.42
338.22 K, 19988 kPa | 577.27
338.22 K, 25002 kPa | 585.14
338.22 K, 29995 kPa | 592.2
338.22 K, 34993 kPa | 598.67
338.22 K, 39988 kPa | 604.63
343.22 K, 1477 kPa | 527.59
343.22 K, 4989 kPa | 538.99
343.22 K, 9987 kPa | 552.06
343.22 K, 14985 kPa | 562.84
343.22 K, 19995 kPa | 572.12
343.22 K, 24993 kPa | 580.29
343.22 K, 29995 kPa | 587.63
343.22 K, 34993 kPa | 594.3
343.22 K, 39996 kPa | 600.44
348.22 K, 9989 kPa | 545.85
348.22 K, 24986 kPa | 575.42
348.23 K, 1592 kPa | 519.85
348.23 K, 4984 kPa | 531.84
348.23 K, 14988 kPa | 557.22
348.23 K, 20000 kPa | 566.94
348.23 K, 29995 kPa | 583.02
348.23 K, 35000 kPa | 589.94
348.23 K, 39996 kPa | 596.25
353.23 K, 1715 kPa | 511.85
353.23 K, 4999 kPa | 524.53
353.23 K, 9991 kPa | 539.5
353.23 K, 14992 kPa | 551.53
353.23 K, 19991 kPa | 561.68
353.23 K, 24984 kPa | 570.52
353.23 K, 30003 kPa | 578.41
353.23 K, 34996 kPa | 585.54
353.23 K, 40004 kPa | 592.05
358.23 K, 1846 kPa | 503.54
358.23 K, 4995 kPa | 516.91
358.23 K, 9989 kPa | 533.03
358.23 K, 14984 kPa | 545.76
358.23 K, 19997 kPa | 556.43
358.23 K, 25002 kPa | 565.63
358.23 K, 30007 kPa | 573.81
358.23 K, 34991 kPa | 581.14
358.23 K, 39997 kPa | 587.85
363.23 K, 1991 kPa | 494.93
363.23 K, 4996 kPa | 509.02
363.23 K, 9987 kPa | 526.43
363.23 K, 14995 kPa | 539.91
363.23 K, 19993 kPa | 551.05
363.23 K, 24987 kPa | 560.63
363.23 K, 29994 kPa | 569.1
363.23 K, 35013 kPa | 576.7
363.23 K, 39993 kPa | 583.59
368.23 K, 2145 kPa | 485.95
368.23 K, 4994 kPa | 500.81
368.23 K, 10001 kPa | 519.71
368.23 K, 15000 kPa | 534.01
368.23 K, 19992 kPa | 545.69
368.23 K, 24989 kPa | 555.66
368.23 K, 29994 kPa | 564.43
368.23 K, 34993 kPa | 572.27
368.23 K, 39995 kPa | 579.38
373.23 K, 2313 kPa | 476.57
373.23 K, 10000 kPa | 512.83
373.23 K, 19991 kPa | 540.27
373.23 K, 24984 kPa | 550.66
373.23 K, 30002 kPa | 559.76
373.23 K, 35005 kPa | 567.88
373.23 K, 39997 kPa | 575.19
373.24 K, 5000 kPa | 492.29
373.24 K, 15001 kPa | 528.02
378.23 K, 4992 kPa | 483.29
378.23 K, 40004 kPa | 571.03
378.24 K, 2492 kPa | 466.71
378.24 K, 9989 kPa | 505.75
378.24 K, 14998 kPa | 521.94
378.24 K, 20001 kPa | 534.83
378.24 K, 24999 kPa | 545.69
378.24 K, 30000 kPa | 555.11
378.24 K, 35012 kPa | 563.49
383.24 K, 2679 kPa | 456.23
383.24 K, 5001 kPa | 473.89
383.24 K, 9994 kPa | 498.55
383.24 K, 14998 kPa | 515.79
383.24 K, 19999 kPa | 529.35
383.24 K, 24986 kPa | 540.63
383.24 K, 29986 kPa | 550.4
383.24 K, 34993 kPa | 559.06
383.24 K, 39986 kPa | 566.81
388.24 K, 2883 kPa | 445.15
388.24 K, 4993 kPa | 463.82
388.24 K, 9989 kPa | 491.12
388.24 K, 14987 kPa | 509.52
388.24 K, 20000 kPa | 523.81
388.24 K, 24990 kPa | 535.58
388.24 K, 29995 kPa | 545.72

Settings | vapor or sublimation pressure [kPa]
289.42 K | 225.85
294 K | 260.86
301.73 K | 329.59
306.48 K | 378.14
315.34 K | 484.39
321.69 K | 572.17
329.51 K | 695.71
337.04 K | 833.9
337.68 K | 845.55
345.48 K | 1009.7
353.71 K | 1207.9
358.53 K | 1337.5
361.4 K | 1416.5
366.99 K | 1590.4
367.1 K | 1594.8
379.44 K | 2014.2
386.99 K | 2310.4
